Data on three sequences can be found in patent US11976274B2, “Methods and compositions for identifying neoantigens for use in treating and preventing cancer” (Arizona Board of Regents on Behalf of Arizona State …, priority 2019, dated 2024).

What all share (assay type): in vivo
Experiment [1] relates to 4T1 cells. Nature of the experiment: 4T1-BALB/c mouse breast tumor model, immunization and tumor challenge. The note with it: for tumor retardation: gene vaccines, three immunizations, subcutaneous 2×10^3 4T1 cells, vs mock. How it is done:
BALB/c and C57BL/6 mice were from Charles River Laboratories or Jackson Laboratories. […] Tumor volumes were measured and calculated by (Length^2×Width/2) daily after the size was larger than 1 mm^3. Breeding pairs of BALB-neuT and FVB-neuN (FVB/N-Tg (MMTVneu) 202Mul) mice were obtained from Joseph Lustgarten, Mayo Clinic Arizona. Mice were monitored weekly for the tumor incidence after tumor size reached 1 mm^3. All experiments were performed in accordance with protocols approved by the Institutional Animal Care and Use Committee of Arizona State University. Statistical significance of differences was analyzed by a Student t-test.
The DNA fragments encoding FS peptides were cloned as a C-terminal fusion into the genetic immunization vectors pCMVi-UB (26) and pCMVi-LSrCOMPTT (27, 28) with the Bgl II and Hind III and mixed with 1:1 ratio as the vaccine antigen. Three adjuvants were encoded by genetic immunization vectors. The pCMVi-mGM-CSF vector expresses the adjuvant mouse granulocyte/macrophage colony-stimulating factor (mGM-CSF) under control of the human cytomegalovirus (CMV) promoter (27). […]. Vectors pCMVi-UB, pCMVi-LSrCOMPTT, pCMVi-LTA (also called pCMVi-LS-LTA-R192G) and pCMVi-LTB are available from the PSI:Biology-Materials Repository DNASU (dnasu.org) at Arizona State University. Additional adjuvants were the class A CpG 2216 single-stranded oligodeoxynucleotide obtained from Sigma and alum from Pierce.
Bullets for biolistic genetic immunization used the gold micronanoplex approach and were prepared as described (30) with the following changes. Two grams of 1-micron gold was used. Prior to addition of N-hydroxysuccinimide and N-(3-dimethylaminopropyl)-N′-ethylcarbodiimide hydrochloride, the gold was resuspended in 20 mL of a 0.1 M solution of 2-(N-morpholino) ethanesulfonic acid (MES), pH 6.0. DNA-gold micronanoplexes were prepared by combining, per bullet, 57 μL of cysteamine-gold solution with precipitated DNA (≤10 μg) that had been resuspended in ≤15 μL of water, and then vortexing for 10 min. To the DNA-cysteamine-gold was added 6 μL/bullet of a freshly made solution of PEI-micron gold (167 mg/mL in 0.1 M MES, pH 6, without NaCl). The pelleted micronanoplexes were washed with ethanol prior to resuspension in n-butanol (55 μL/bullet), followed by bullet formation under nitrogen gas.
For the three MS FS experiments, all mice (n=10 per group) were genetically immunized in the ear by Gene Gun at 8 weeks of age (2 shots/mouse, 60 ng pooled antigens plus 0.25 μg LTAB and 2.5 μg CpG2216 as the adjuvant for each shot) and boosted twice (two days apart) in three weeks with 1 μg pooled antigens plus the same adjuvants dosage. All mice were boosted again in two weeks with 50 μg KLH conjugated MS FS peptides with 50 μg CpG 2216 and 50 ul alum in total 100 ul PBS. […]

Experiment [2] concerns BALB-NeuT mouse breast tumor. Briefly: BALB-NeuT transgenic mouse mammary cancer model, tumor free curve. The note with it: Mantal-Cox test. The method, then:
BALB/c and C57BL/6 mice were from Charles River Laboratories or Jackson Laboratories. For the tumor challenge, 5×10^3 4T1 cells were injected in the mammary pad at the right flank of the mice, or 1×10^5 B16F10 cells were injected subcutaneously in the right flank of the mice. Tumor volumes were measured and calculated by (Length^2×Width/2) daily after the size was larger than 1 mm^3. Breeding pairs of BALB-neuT and FVB-neuN (FVB/N-Tg (MMTVneu) 202Mul) mice were obtained from Joseph Lustgarten, Mayo Clinic Arizona. Mice were monitored weekly for the tumor incidence after tumor size reached 1 mm^3. All experiments were performed in accordance with protocols approved by the Institutional Animal Care and Use Committee of Arizona State University. Statistical significance of differences was analyzed by a Student t-test.
Mice were genetically immunized by Gene Gun at 4-6 weeks with 100 ng of antigen(s) in pCMVi vectors, boosted twice (3-4 days apart) at 9-10 weeks with 1 μg of the same antigen(s), and boosted once at 13-14 weeks with protein. Genetic immunizations included adjuvants LTAB (0.5 μg) and CpG 2216 (5 μg). Protein boosts were 50 μg of KLH conjugated FS peptides (SMC1A-1^4, n=32; RBM FS, n=22; SLAIN2 FS, n=14 and pool of three FS neoantigens, n=37). The protein boost included 50 μg CpG 2216 and 50 μl alum in 100 μl PBS as the adjuvant. […]

In experiment [3] the test system is B16-F10 cells. Nature of the experiment: B16F10-C57BL6 mouse melanoma tumor model, genetic immunization and tumor challenge. The note with it: B16F10 melanoma in C57BL6, gene gun immunization, 1×10^5 cells, vs mock/control antigen CPV 172.

Regarding AVLLMCQLYQPWMCKEYYRLL [ZDHHC17 FS], the tumor retardation entry in experiment [1] was “did not”.
Regarding IPRMQPQASANHCQLLKVMVA [SLAIN2 FS], the tumor retardation result in experiment [1] is “conferred tumor retardation”. The “p, tumor free curve, 3FS pool vs individual FS antigen group” value in experiment [2] stood at 0.43.
As to “TAIIGPNGSGCSGVYCHEEPQGEDSSV [mSMC1A-1^4]”, in experiment [3], the tumor growth result is reported as “significant retardation of tumor growth”. The 4T1 tumor growth result in experiment [1] (BALB/c, gene gun plus KLH-peptide boost, 5×10^3 4T1 cells, vs empty vector/KLH) is “significantly retarded the 4T1 tumor growth”. For the same sequence, the “T-cell dependence of protection” value in experiment [1] (depletion of CD8 or CD4 T-cells in immunized BALB/c mice, 4T1) is on record as “CD8 T cell dependent”.
